Twelve compounds from US8343959B2, “N-phenyl-(piperazinyl or homopiperazinyl)-benzenesulfonamide or benzenesulfonyl-phenyl-(piperazine or homopiperazine) compounds suitable for treating disorders that respond to modulation of the serotonin 5-HT6 receptor” (Abbott GmbH & Co. KG, priority 2009, dated 2013) can be followed below.

The structures appear in SMILES notation. Structures can show the parent of a compound that is named as a salt.

T1 sequence (P50406 whole entry): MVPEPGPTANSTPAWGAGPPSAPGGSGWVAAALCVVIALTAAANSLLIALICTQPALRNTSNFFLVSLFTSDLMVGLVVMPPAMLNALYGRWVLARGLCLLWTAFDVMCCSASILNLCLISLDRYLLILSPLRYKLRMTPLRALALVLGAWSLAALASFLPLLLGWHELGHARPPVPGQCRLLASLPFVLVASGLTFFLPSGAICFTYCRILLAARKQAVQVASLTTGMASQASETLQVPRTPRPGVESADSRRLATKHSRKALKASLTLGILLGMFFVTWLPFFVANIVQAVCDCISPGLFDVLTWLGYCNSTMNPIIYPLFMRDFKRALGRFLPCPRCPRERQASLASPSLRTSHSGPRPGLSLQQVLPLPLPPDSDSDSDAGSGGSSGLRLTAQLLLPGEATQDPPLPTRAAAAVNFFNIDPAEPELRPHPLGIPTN

This test has as its target T1, h-5-HT6 receptor (Homo sapiens, UniProt P50406).
T1 construct: expressed in transfected cells
The experiment in a line: 5-HT6 receptor binding assay (displacement of [3H]-LSD). The note with it: membranes of HEK293 cells expressing h-5-HT6 receptor, 1 nM [3H]-LSD; read-out: Ki (5HT6). Background: Displacement assays read how much labelled ligand stays bound in the presence of the test substance.
For orientation: Ki means the dissociation constant of the complex between target and ligand, obtained from inhibition or displacement. On to `Cc1ccc(NS(=O)(=O)c2ccc(C)c(N3CCN(C)CC3)c2)c(OC(F)F)c1` [Example 91, N-(2-Difluoromethoxy-4-methyl-phenyl)-4-methyl-3-(4-methyl-piperazin-1-yl)-benzenesulfonamide hydrochloride], for which the Ki is under 50 nM.

Turning to `Cc1ccc(OC(F)F)c(NS(=O)(=O)c2ccc(C)c(N3CCN(C)CC3)c2)c1` [Example 92, N-(2-Difluoromethoxy-5-methyl-phenyl)-4-methyl-3-(4-methyl-piperazin-1-yl)-benzenesulfonamide hydrochloride], the Ki was under 10 nM.

Regarding `COc1cc(NS(=O)(=O)c2ccc(OC)c(N3CCNCC3)c2)ccc1OC(F)F` [Example 93, N-(4-Difluoromethoxy-3-methoxy-phenyl)-4-methoxy-3-piperazin-1-yl-benzenesulfonamide hydrochloride], the Ki was under 10 nM.

Consider `Cc1ccc(S(=O)(=O)Nc2cccc(OC(F)F)c2)cc1N1CCN(C)CC1` [Example 94, N-(3-Difluoromethoxy-phenyl)-4-methyl-3-(4-methyl-piperazin-1-yl)-benzenesulfonamide hydrochloride], for which the Ki is under 10 nM.

Consider `COc1ccc(S(=O)(=O)Nc2ccc(OC(F)F)cc2)cc1N1CCN(C)CC1` [Example 95, N-(4-Difluoromethoxy-phenyl)-4-methoxy-3-(4-methyl-piperazin-1-yl)-benzenesulfonamide hydrochloride], for which the inhibitory constant (Ki) was under 10 nM.

Turning to `Cc1ccc(S(=O)(=O)Nc2cccc(OC(F)F)c2)cc1N1CCCNCC1` [Example 96, 3-[1,4]Diazepan-1-yl-N-(3-difluoromethoxy-phenyl)-4-methyl-benzenesulfonamide hydrochloride], the Ki was under 50 nM.

Take `Cc1ccc(S(=O)(=O)Nc2ccccc2OC(F)F)cc1N1CCCNCC1` [Example 97, 3-[1,4]Diazepan-1-yl-N-(2-difluoromethoxy-phenyl)-4-methyl-benzenesulfonamide hydrochloride]: the Ki was under 10 nM.

`Cc1ccc(NS(=O)(=O)c2ccc(C)c(N3CCCNCC3)c2)cc1OC(F)F` [Example 98, 3-[1,4]Diazepan-1-yl-N-(3-difluoromethoxy-4-methyl-phenyl)-4-methyl-benzenesulfonamide hydrochloride]: the Ki was under 50 nM.

Take `Cc1ccc(NS(=O)(=O)c2ccc(C)c(N3CCCN(C)CC3)c2)cc1OC(F)F` [Example 99, N-(3-Difluoromethoxy-4-methyl-phenyl)-4-methyl-3-(4-methyl-[1,4]diazepan-1-yl)-benzenesulfonamide hydrochloride]: the inhibitory constant (Ki) is under 500 nM.

`Cc1ccc(S(=O)(=O)Nc2ccccc2OC(F)F)cc1N1CCCN(C)CC1` [Example 100, N-(2-Difluoromethoxy-phenyl)-4-methyl-3-(4-methyl-[1,4]diazepan-1-yl)-benzenesulfonamide hydrochloride]: the inhibition constant Ki is under 10 nM.

`Cc1ccc(S(=O)(=O)Nc2cccc(OC(F)F)c2)cc1N1CCCN(C)CC1` [Example 101, N-(3-Difluoromethoxy-phenyl)-4-methyl-3-(4-methyl-[1,4]diazepan-1-yl)-benzenesulfonamide hydrochloride]: the Ki was under 10 nM.

As for `CCOc1ccc(S(=O)(=O)Nc2ccc(C)cc2OC(F)F)cc1N1CCNCC1` [Example 106, N-(2-Difluoromethoxy-4-methylphenyl)-4-ethoxy-3-piperazin-1-yl benzenesulfonamide], the Ki is under 10 nM.
